From PubChem BioAssay (NCI)
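Grown in 96-well plates, cells were treated for 48 hours with each compound at five concentrations. Insufficient inhibition: endpoint recorded as highest concentration tested. TGI: total growth inhibition.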

What was measured:
Test in all cases: growth of human tumour cells (NCI), 48 h
PC-3 prostate = tested on: PC-3 prostate
HOP-92 NSCLC = tested on: HOP-92 NSCLC
MDA-MB-231 breast = tested on: MDA-MB-231 breast
MDA-N = tested on: MDA-N
MDA-MB-435 = tested on: MDA-MB-435
ACHN renal = tested on: ACHN renal
UACC-62 melanoma = tested on: UACC-62 melanoma
786-0 renal = tested on: 786-0 renal
SNB-75 CNS = tested on: SNB-75 CNS
HCC-2998 colon = tested on: HCC-2998 colon
U251 CNS = tested on: U251 CNS
NCI-H226 lung = tested on: NCI-H226 lung
A498 renal = tested on: A498 renal
UACC-257 melanoma = tested on: UACC-257 melanoma
HCT-116 colon = tested on: HCT-116 colon
MOLT-4 leukemia = tested on: MOLT-4 leukemia
T-47D breast = tested on: T-47D breast
SF-268 CNS = tested on: SF-268 CNS
HCT-15 colon = tested on: HCT-15 colon

| SMILES | TGI (PC-3 prostate) | TGI (HOP-92 NSCLC) | TGI (MDA-MB-231 breast) | TGI (MDA-N) | TGI (MDA-MB-435) | TGI (ACHN renal) | TGI (UACC-62 melanoma) | TGI (786-0 renal) | TGI (SNB-75 CNS) | TGI (HCC-2998 colon) | TGI (U251 CNS) | TGI (NCI-H226 lung) | TGI (A498 renal) | TGI (UACC-257 melanoma) | TGI (HCT-116 colon) | TGI (MOLT-4 leukemia) | TGI (T-47D breast) | TGI (SF-268 CNS) | TGI (HCT-15 colon) |
| --- | --- | --- | --- | --- | --- | --- | --- | --- | --- | --- | --- | --- | --- | --- | --- | --- | --- | --- | --- |
| COc1nc2c(c(=O)[nH]1)N=C(c1ccc([N+](=O)[O-])cc1)CC(c1ccccc1)N2 (stereo unspecified) | > 100 µM | > 100 µM | > 100 µM | > 100 µM | > 100 µM | > 100 µM | > 100 µM | > 100 µM | > 100 µM | > 100 µM | > 100 µM | > 100 µM | > 100 µM | > 100 µM | > 100 µM | > 100 µM |  |  |  |
| CC(=O)OC1=C(c2ccccc2)S(=O)(=O)c2ccccc21 | > 100 µM | > 100 µM | > 100 µM |  | > 100 µM | > 100 µM | > 100 µM | > 100 µM | > 100 µM | > 100 µM | > 100 µM | > 100 µM | > 100 µM | > 100 µM | > 100 µM | > 100 µM | > 100 µM | > 100 µM | > 100 µM |
| C/C(=N\NC(N)=O)C(CN1CCOCC1)C(c1ccccc1)c1c(O)c2ccccc2oc1=O (stereo unspecified) | > 100 µM | > 100 µM | > 100 µM | > 100 µM | > 100 µM | > 100 µM | > 100 µM | > 100 µM | > 100 µM | > 100 µM | > 100 µM | > 100 µM | 91.8 µM | > 100 µM | > 100 µM | > 100 µM |  | > 100 µM | > 100 µM |
| O=c1[nH]nc(Nc2ccc(Cl)cc2)c2nnn(-c3ccc([N+](=O)[O-])cc3)c12 | 68.8 µM | 46.9 µM | > 100 µM |  | > 100 µM | > 100 µM |  | 35.5 µM | > 100 µM | 64.7 µM | 46 µM | > 100 µM |  | > 100 µM | 42.4 µM | 45.2 µM |  | > 100 µM | > 100 µM |
| CCCCCCCC(=O)N1C2CC3CCC2(CS1(=O)=O)C3(C)C (stereo unspecified) | 69.1 µM | 68 µM |  | 72 µM | > 100 µM | > 100 µM | 55.5 µM | 31.7 µM | > 100 µM | 51.2 µM | 69.9 µM |  | > 100 µM | 68.6 µM | > 100 µM | 35.1 µM |  | > 100 µM | 26.7 µM |
| CN1CN(c2ccccc2)C2(CCN(CCCN(C)c3ccc(F)cc3)CC2)C1=O | 63.8 µM |  | 28.3 µM | 30.7 µM | 37.4 µM | 53.2 µM | 36.5 µM | 42.2 µM | 40 µM |  | 33.3 µM | 45.1 µM | 72.6 µM | 33.6 µM | 25.4 µM | 54.7 µM | 41.7 µM | 54.6 µM | 50.1 µM |
| C/C(=C\COP(=O)(O)CP(=O)(O)O)CC/C=C(\C)CNc1ccccc1 | > 100 µM |  | > 100 µM |  | > 100 µM | > 100 µM | > 100 µM | > 100 µM | > 100 µM |  | > 100 µM | > 100 µM |  | > 100 µM | > 100 µM | > 100 µM | > 100 µM | > 100 µM | > 100 µM |
| COc1cccc(O)c1-c1cc(=O)c2c(O)c(OC)c(OC)c(OC)c2o1 | 66.7 µM | 82.8 µM | > 100 µM | 49.2 µM | 55.4 µM | > 100 µM | 32.8 µM | > 100 µM | 76.1 µM | 25.4 µM | > 100 µM | > 100 µM |  | 80.5 µM | > 100 µM | 97.7 µM |  | > 100 µM | > 100 µM |
| O=C(NNC(=O)c1cc2ccccc2[nH]1)c1cc2ccccc2[nH]1 | > 100 µM |  | > 100 µM | > 100 µM | > 100 µM |  | > 100 µM | > 100 µM | > 100 µM |  | > 100 µM | > 100 µM | > 100 µM | > 100 µM | > 100 µM | > 100 µM | > 100 µM | > 100 µM | > 100 µM |
| C[C@H]1CC(=O)C[C@@H]2CC[C@@H]3[C@H](CC[C@]4(C)C(OC(=O)c5cccc6c(=O)c7ccccc7[nH]c56)CC[C@@H]34)[C@]21C (stereo partly specified) | > 100 µM | 70.8 µM | > 100 µM |  | > 100 µM | > 100 µM | 88.3 µM | > 100 µM | 92.8 µM | > 100 µM | > 100 µM | > 100 µM | > 100 µM | > 100 µM | > 100 µM | 30.2 µM | > 100 µM | > 100 µM | > 100 µM |
| COC(=O)c1c(C(=O)OC)c2ccccn2c1-c1cc(C)cc2c1C(=O)C=CC2=O | 18.5 µM |  | 15.9 µM | 15.3 µM | 16 µM | 17.2 µM | 17.7 µM | 11.3 µM | 23.6 µM | 20.1 µM |  | 19.7 µM | 17.5 µM | 13.6 µM | 15.7 µM | 3.76 µM | 7.83 µM | 20.8 µM | 15.6 µM |
| CC(C)c1cc(C(C)C)c(S(=O)(=O)N/N=C2\CC3CCC2(C)C3(C)C)c(C(C)C)c1 (stereo unspecified) | > 100 µM |  | > 100 µM | 64.8 µM | > 100 µM | > 100 µM | > 100 µM | > 100 µM |  | > 100 µM | > 100 µM | 80 µM | 32.7 µM | 26.2 µM | > 100 µM | 40 µM | 68 µM | > 100 µM | > 100 µM |
| Cc1[nH]n(C(=O)Cc2ccccc2)c(=O)c1/C=C1\C(=O)C=Cc2ccccc21 |  |  |  |  |  | > 100 µM |  | > 100 µM | > 100 µM | > 100 µM |  | > 100 µM |  | > 100 µM | > 100 µM | > 100 µM |  | > 100 µM | > 100 µM |
| O=[N+]([O-])c1cccc(-c2ccc([C@H]3CC(c4ccc(Cl)cc4)=NN3)o2)c1 |  | 67.6 µM |  | 66.7 µM | 54.4 µM | 34.4 µM | 49.1 µM | 28.5 µM | 48.4 µM | 38.1 µM |  | 45.8 µM | 88.2 µM | 83.9 µM | 31.2 µM | 29.1 µM | 41.7 µM | > 100 µM | 40.3 µM |
